Results from patent publication US11793845B2, “Composition for ameliorating peripheral sensory neuropathy” (KINKI UNIVERSITY, priority 2016, dated 2023).

Assays:
Format in all cases: in vivo
[1] = tested on: Peripheral Sensory Neuropathy Induced by Bortezomib in Mice; assay: cold plate test, bortezomib-induced peripheral sensory neuropathy; conditions: duloxetine 30 mg/kg daily
Method: (§1) The effect of the Lentinus edodes mycelium extract on the paresthesia to cold stimulation was tested by performing the cold plate test. The mice in the three groups in the above (1) were put on a cold plate set to 10° C. and a response time for avoidance (a latency) was measured. The shorter latency means that the mouse avoids the cold stimulation of the cold plate more.
In the present test, the mice were divided into three groups by a difference in test objects. As in Example 1, male Balb/c mice of 6 to 7 weeks old were used. The mice were divided into a total of three groups, a control group, a bortezomib administration group, and a bortezomib and Lentinus edodes mycelium extract administration group (bortezomib+Lentinus edodes mycelium extract administration group).
Bortezomib was administered to each mouse once a day at a dose of 1 mg/kg. Further, the Lentinus edodes mycelium extract was administered to each mouse once a day at a dose of 2 g/kg.
Evaluation was performed in the same manner as in the test with oxaliplatin in Example 1. Referring to FIG. 8, the horizontal axis indicates the elapsed time after administration (days) and the vertical axis indicates the avoidance response time (seconds). Open circles with a solid line represent the control group. Filled circles with a solid line represent the group in which only bortezomib was administered. Open squares with a dash line represent the group in which bortezomib and the Lentinus edodes mycelium extract were administered at the same time (bortezomib+Lentinus edodes mycelium extract administration groups). When the difference with the control group was determined to be significant using a significance level of 5%, the data were marked by “*”.
(§2) In the present test, the mice were divided into six groups by a difference in test objects. As in Example 1, male Balb/c mice of 6 to 7 weeks old were used. […]

[2] = tested on: Peripheral Sensory Neuropathy Induced by Oxaliplatin in Mice; assay: von Frey test, oxaliplatin-induced peripheral sensory neuropathy
Method: Male Balb/c mice of 6 to 7 weeks old were used. The mice were divided into three groups: a control group, an oxaliplatin administration group, and an oxaliplatin and Lentinus edodes mycelium extract administration group (oxaliplatin+Lentinus edodes mycelium extract administration group). Oxaliplatin was administered to each mouse once a day at a dose of 6 mg/kg. Further, the Lentinus edodes mycelium extract was administered to each mouse once a day at a dose of 2 g/kg.
Further, the number of times of administration was set to once a week (on Day 0, Day 7, and Day 14) for oxaliplatin and daily (from Day 0 to Day 15) for the Lentinus edodes mycelium extract in both the von Frey test and the cold plate test below.
The higher number of times of avoidance means that the mouse avoids the stimulation by the filament more. […] When the difference with the control group was determined to be significant using a significance level of 5%, the data were marked by “*”.

[3] = tested on: Peripheral Sensory Neuropathy Induced by Vincristine in Mice; assay: cold plate test, vincristine-induced peripheral sensory neuropathy; conditions: duloxetine 30 mg/kg daily
Method: as §1
In the present test, the mice were divided into three groups by a difference in test objects. As in Example 1, male Balb/c mice of 6 to 7 weeks old were used. The mice were divided into a total of three groups, a control group, a vincristine
administration group, and a vincristine and Lentinus edodes mycelium extract administration group (vincristine+Lentinus edodes mycelium extract administration group).
Vincristine was administered to each mouse once a day at a dose of 0.2 mg/kg. Further, the Lentinus edodes mycelium extract was administered to each mouse once a day at a dose of 2 g/kg.
Evaluation was performed in the same manner as in the test with oxaliplatin in Example 1. Referring to FIG. 6, the horizontal axis indicates the elapsed time after administration (days) and the vertical axis indicates the avoidance response time (seconds). Open circles with a solid line represent the control group. Filled circles with a solid line represent the group in which only vincristine was administered. Open squares with a dash line represent the group in which vincristine and the Lentinus edodes mycelium extract were administered at the same time (vincristine+Lentinus edodes mycelium extract administration group). When the difference with the control group was determined to be significant using a significance level of 5%, the data were marked by “*”.
as §2

**Q.** `CNCC[C@H](Oc1cccc2ccccc12)c1cccs1` [duloxetine] was tested. Which “latency compared with bortezomib administration group, cold plate test” value ([1]; 3-day delayed after bortezomib) did it give?
**A.** almost the same as that in the bortezomib administration group

**Q.** What about the “latency, cold plate test” value ([1]; 6-day delayed after bortezomib) of the same compound?
**A.** same tendency as that in the duloxetine 3-day delayed administration group

**Q.** What about the “avoidance score compared with oxaliplatin administration group, von Frey test” value ([2]; duloxetine 30 mg/kg daily Day 3 to Day 23 (3-day delayed) after oxaliplatin 6 mg/kg weekly) of the same compound?
**A.** almost the same score as that in the oxaliplatin administration group

**Q.** What about the “avoidance score, von Frey test” value ([2]; duloxetine 30 mg/kg daily Day 6 to Day 23 (6-day delayed) after oxaliplatin 6 mg/kg weekly) of the same compound?
**A.** same tendency as that in the duloxetine 3-day delayed administration group

**Q.** What about the “latency compared with vincristine administration group, cold plate test” value ([3]; 3-day delayed after vincristine) of the same compound?
**A.** almost the same as that in the vincristine administration group

**Q.** And the “latency, cold plate test” value ([3]; 6-day delayed after vincristine)?
**A.** same tendency as that in the duloxetine 3-day delayed administration group
